Measured values published in patent publication US20100016275A1, “NOVEL COMPOUND 395” (priority 2008, published 2010).
Converted amounts (≈) assume the structure as drawn. “And” between values parts separate entries of the source, which are not always exact repeats. Equal values may be shown once.

Legend:
human CXCR2 receptor = target: T1, human CXCR2 receptor (Homo sapiens, UniProt P25025); test: Potency (pIC50) ligand binding assay, inhibition of [125I]IL-8 binding; settings: for IC50: inhibition of specific [125I]IL-8 (0.06 nM) binding, membranes of HEK293 cells transfected with human recombinant CXCR2
T1 construct: expressed in transfected cells; host or cells: HEK293, stably transfected geneticin-resistant clones, vector RcCMV; membranes purified by sucrose gradient
T1 sequence (P25025 1-360): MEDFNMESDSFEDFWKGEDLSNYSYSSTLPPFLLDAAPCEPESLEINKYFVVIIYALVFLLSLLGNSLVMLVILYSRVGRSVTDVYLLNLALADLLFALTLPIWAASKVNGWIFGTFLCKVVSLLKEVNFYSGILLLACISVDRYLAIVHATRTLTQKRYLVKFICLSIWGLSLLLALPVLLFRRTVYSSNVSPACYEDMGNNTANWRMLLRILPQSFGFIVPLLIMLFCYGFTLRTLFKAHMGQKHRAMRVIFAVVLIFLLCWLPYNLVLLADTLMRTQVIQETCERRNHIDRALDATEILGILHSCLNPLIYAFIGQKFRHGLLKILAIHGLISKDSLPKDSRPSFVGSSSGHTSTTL
Experimental: Potency (pIC50)—Ligand Binding Assay
The potency of antagonists at the human CXCR2 receptor was determined in vitro by quantifying their ability to inhibit specific binding of the CXCR2 radioligand, [^125I]interleukin-8 (IL-8), from membranes of HEK293 cells transfected with the human recombinant CXCR2 receptor.
Commercially sourced materials were obtained as follows: U-bottomed 96-well plates (3799) and 225 cm^2 vented cap culture flasks (3001) from Costar, Corning, Kent, UK. Multiscreen filter plates (0.45 μm; MAHV N45 50), vacuum manifold and pump (XF54 230 50) from Millipore, Watford, UK. N-[2-hydroxyethyl]piperazine-N′-[2ethanesulphonic acid] (HEPES; H-3375), ethylene diamine-tetraacetic acid (EDTA; E1644), magnesium chloride (M-9272), gelatin (G9382), dithiothreitol (DTT; D06052), sodium chloride (S3160/63), sodium hydroxide (B6506), bacitracin (B0125), inactivated foetal calf serum (FCS; CR0848) and DMSO Fluka Chemika (41648) from Sigma, Poole, UK. MicroScint-O (6013611) Packard BioScience, Pangboume, UK. Complete protease inhibitor cocktail tablets (1836145) from Boehringer s Mannheim, GmbH, Germany. Human recombinant [^125I]IL-8 74 TBq/mmol, 0.712 MBq/ml (IM249) from Amersham, Horsham UK. All other tissue culture reagents were purchased from Invitrogen, Paisley, Scotland, UK. All other chemical reagents were analytical grade from Fisher Scientific, Loughborough, UK
HEPES-buffered salt solution pH 7.4 containing HEPES (10 mM), potassium chloride (2.7 mM), sodium chloride (137 mM), potassium hydrogen phosphate (0.4 mM), calcium chloride (1.8 mM), magnesium chloride (1 mM), gelatin (0.1% (w/v)) and bacitracin (100 μg/ml).
HEPES-buffered Tyrode's solution pH 7.4 containing HEPES (10 mM), potassium chloride (2.7 mM), sodium chloride (137 mM), potassium hydrogen phosphate (0.4 mM), glucose (11 mM).
Hypotonic buffer: 3:1 mix of water: HEPES-buffered Tyrode's solution.
HEK293 cells were transfected with human CXCR2 (EMBL L19593) cDNA, previously cloned into the eukaryotic expression vector RcCMV. Cloned cell-lines were generated from stably-transfected geneticin-resistant populations. Cells were routinely grown to approximately 80% confluence in DMEM medium containing 10% (v/v) foetal calf serum and glutamine (2 mM) in a humidified incubator at 37° C., 5% CO2. Cells were harvested from flasks using Accutase™ at 37° C. for 3 to 5 minutes and resuspended on ice in hypotonic buffer at a density of 2×10^7 cells/mL. Membranes were prepared on ice by homogenisaton using a polytron tissue homogenizer set at 22000 rpm. The membrane fraction was purified by sucrose gradient centrifugation where homogenised cells were layered onto 41% (w/v) sucrose solution then centrifuged at 140000 g for 1 hour at 4° C. The membrane fraction was harvested at the interface, diluted 4-fold with HEPES-buffered Tyrode's solution and centrifuged at 100000 g for 20 minutes at 4° C. The membrane pellet was re-suspended at 1×10^8 cell equivalents/mL in HEPES-buffered Tyrode's solution and subsequently stored in aliquots at −80° C. All buffers used for membrane preparation and storage were made in the presence of 1 mM DTT and Complete Protease Inhibitor™ cocktail tablets, made up to manufacturers instructions.
Assays were performed in HEPES-buffered salt solution in 96-well plates. [^125I]IL-8 was used at a final concentration of 0.06 nM, pre-diluted from a 9.6 nM stock. The final DMSO concentration in the assay was 1% (v/v). Test compounds were prepared by serial dilution in DMSO followed by a ten-fold dilution into HEPES-buffered salt solution to give a working solution containing compound and 10% DMSO. The control for total binding (B0) of [^125I]IL-8 was determined in the absence of compound. The control for non-specific binding (NSB) was determined by measuring [^125I]IL-8 binding in the presence of (1R)-5-[[(3 -chloro-2-fluorophenyl)methyl]thio]-7-[[2-hydroxy-1-methylethyl]amino]thiazolo[4,5-d]pyrimidin-2(3H)-one dihydrate, sodium salt at 1 μM final concentration. […]

[1] = Measurement of solubility (S); format: physicochemical; settings: thermodynamic from solid; saturated solution, shaken overnight at 20° C.
Text: Measurement of Solubility (S)
The solubility of a compound is an important property affecting the preparation of solutions of the compound for screening, as well as influencing absorption of solid doses of the compound in animal and human studies. The method described below for measuring the solubility involves the generation of a saturated solution of the compound, followed by assaying the solution using HPLC with UV quantification and MS identification.
Saturated solutions for determining the solubility were prepared by placing about 0.3-3.0 ml of solvent in glass screw-top sample tubes along with some of the compound. The tubes are then shaken overnight in the constant temperature room (20° C.). After shaking, undissolved material should be present in the solution, and more was added and shaking continued if this was not the case. The samples were then transferred to a centrifuge tube and centrifuged using a Heraeus Biofuge Fresco centrifuge at 13000 rpm for about 30 minutes. The supernatant was then removed, placed in a new centrifuge tube and centrifuged again for about 30 minutes at 13000 rpm. The undissolved material formed a pellet at the bottom of the tube and the liquid above the pellet was removed for assaying. The solution was then analysed using HPLC with UV quantification. If the response for the compound is very strong then the solution should be accurately diluted such that the response lies within a more suitable range of UV response. A standard was also prepared by accurately weighing a sample of the compound and dissolving it in a suitable volume of a solvent that dissolves it completely (typically, DMSO, ethanol or methanol). This sample was then analysed by HPLC/UV. Again the response of this standard should lie within a suitable range of UV response otherwise a more appropriate concentration should be prepared and analysed by HPLC/UV.
The solubility (S) was calculated from the observed peak areas in the HPLC/UV chromatograms along with corrections for any dilutions of the sample and differences in injection volumes. The following equation was used: […]

Compound	IC50 (human CXCR2 receptor)	solubility [1] [µg/mL]	fold less potent than the compound of Formula (1) (human CXCR2 receptor; potency ratio from pIC50) [fold]	fold less potent than the compounds of Examples 39-42 (human CXCR2 receptor; potency ratio from pIC50)
Cc1cccc(CSc2nc(N[C@H](C)CO)cc(NS(C)(=O)=O)n2)c1F [Example 39]	3.98 nM	342 (≈ 854 µM)	–	–
CS(=O)(=O)Nc1cc(NC(CO)CO)nc(SCc2ccccc2)n1 [Example 21]	2510 nM	–	398	316-1000 fold
Cc1ccc(CSc2nc(N[C@H](C)CO)cc(NS(=O)(=O)N3CCC3)n2)c(F)c1C [Example 42]	7.94 nM	–	–	–
Cc1cccc(CSc2nc(N[C@H](C)CO)cc(NS(=O)(=O)N3CCC3)n2)c1F [Example 40]	2.51 nM	–	–	–
C[C@@H](Nc1cc(NS(=O)(=O)N2CCC2)nc(SCc2cccc(F)c2F)n1)[C@@H](O)CO [Example 1, N-(2-[(2,3-difluorobenzyl)thio]-6-{[(1R,2R)-2,3-dihydroxy-1-methylpropyl]amino}pyrimidin-4-yl)azetidine-1-sulfonamide]	6.31 nM and < 10 nM	317 (≈ 667 µM)	–	–
Cc1ccc(CSc2nc(N[C@H](C)CO)cc(NS(=O)(=O)N3CCC3)n2)c(F)c1C [Example 41]	3.16 nM	372 (≈ 817 µM)	–	–
